This note sets out measurements from article PMC10897480, “Molecular details of ruthenium red pore block in TRPV channels” (EMBO Reports, 2024).

Data set [1] has as its target T1, TRPV2 (Rattus norvegicus, UniProt Q9WUD2).
T1 construct: wild-type rat TRPV2, C-terminal 1D4 tag, in nanodiscs
T1 sequence (Q9WUD2 1-761): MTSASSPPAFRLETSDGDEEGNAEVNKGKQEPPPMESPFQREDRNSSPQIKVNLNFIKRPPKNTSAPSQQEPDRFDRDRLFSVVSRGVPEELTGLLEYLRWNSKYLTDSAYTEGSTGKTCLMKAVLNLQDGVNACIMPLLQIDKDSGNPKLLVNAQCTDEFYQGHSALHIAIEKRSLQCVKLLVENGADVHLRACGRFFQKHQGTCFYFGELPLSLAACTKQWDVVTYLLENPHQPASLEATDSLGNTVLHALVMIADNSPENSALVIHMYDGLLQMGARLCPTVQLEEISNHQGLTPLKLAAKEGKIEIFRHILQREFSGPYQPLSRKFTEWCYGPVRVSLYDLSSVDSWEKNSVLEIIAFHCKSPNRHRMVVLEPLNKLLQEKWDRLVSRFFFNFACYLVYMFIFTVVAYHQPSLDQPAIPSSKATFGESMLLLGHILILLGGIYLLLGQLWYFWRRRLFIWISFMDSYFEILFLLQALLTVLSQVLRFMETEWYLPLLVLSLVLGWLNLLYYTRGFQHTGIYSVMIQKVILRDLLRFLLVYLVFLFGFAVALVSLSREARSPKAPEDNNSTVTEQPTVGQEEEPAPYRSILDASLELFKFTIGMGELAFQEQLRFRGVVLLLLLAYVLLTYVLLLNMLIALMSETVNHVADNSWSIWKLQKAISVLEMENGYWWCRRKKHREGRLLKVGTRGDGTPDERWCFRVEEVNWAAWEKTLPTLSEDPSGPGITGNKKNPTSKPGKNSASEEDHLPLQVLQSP
Briefly: cryo-EM structure ([…] Å, with RR); activates whole-cell currents at […].

For data set [2], the target named is T2, TRPV5 (Oryctolagus cuniculus, UniProt Q9XSM3, T539A).
T2 construct: rabbit TRPV5 expressed in HEK293T cells
T2 sequence (Q9XSM3 1-730 T539A): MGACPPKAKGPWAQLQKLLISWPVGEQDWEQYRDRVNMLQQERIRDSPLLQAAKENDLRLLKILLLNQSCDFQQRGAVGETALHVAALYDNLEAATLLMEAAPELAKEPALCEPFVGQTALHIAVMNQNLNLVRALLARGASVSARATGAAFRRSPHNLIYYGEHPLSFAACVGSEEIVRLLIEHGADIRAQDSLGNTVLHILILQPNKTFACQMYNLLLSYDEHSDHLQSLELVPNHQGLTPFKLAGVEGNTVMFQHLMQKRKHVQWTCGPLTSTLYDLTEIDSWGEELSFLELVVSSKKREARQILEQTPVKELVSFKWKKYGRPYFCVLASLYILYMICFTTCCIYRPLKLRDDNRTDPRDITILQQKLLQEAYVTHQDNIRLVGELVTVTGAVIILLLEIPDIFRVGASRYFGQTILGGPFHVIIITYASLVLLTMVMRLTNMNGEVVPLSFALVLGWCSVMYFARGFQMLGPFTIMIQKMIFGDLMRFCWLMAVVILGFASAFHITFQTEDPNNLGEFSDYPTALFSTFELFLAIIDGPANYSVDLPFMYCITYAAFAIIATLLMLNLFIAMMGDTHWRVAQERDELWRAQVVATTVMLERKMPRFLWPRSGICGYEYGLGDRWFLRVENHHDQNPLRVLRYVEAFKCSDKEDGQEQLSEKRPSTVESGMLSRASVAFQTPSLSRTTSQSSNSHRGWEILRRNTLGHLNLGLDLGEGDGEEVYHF
Briefly: whole-cell patch clamp, % inhibition at […] RR ([…] at […]). Format: cell-based. (In patch-clamp work, channel activity is measured electrically.)

In data set [3] the target is T1, TRPV2. In words: cryo-EM structure ([…] Å, with 2-APB); IC50 from whole-cell patch clamp in HEK293T cells. The format is cell-based.
Data set [4] addresses T3, TRPV2 (Rattus norvegicus, UniProt Q9WUD2, M607I).
T3 construct: rat TRPV2 expressed in HEK293T cells
T3 sequence (Q9WUD2 1-761 M607I): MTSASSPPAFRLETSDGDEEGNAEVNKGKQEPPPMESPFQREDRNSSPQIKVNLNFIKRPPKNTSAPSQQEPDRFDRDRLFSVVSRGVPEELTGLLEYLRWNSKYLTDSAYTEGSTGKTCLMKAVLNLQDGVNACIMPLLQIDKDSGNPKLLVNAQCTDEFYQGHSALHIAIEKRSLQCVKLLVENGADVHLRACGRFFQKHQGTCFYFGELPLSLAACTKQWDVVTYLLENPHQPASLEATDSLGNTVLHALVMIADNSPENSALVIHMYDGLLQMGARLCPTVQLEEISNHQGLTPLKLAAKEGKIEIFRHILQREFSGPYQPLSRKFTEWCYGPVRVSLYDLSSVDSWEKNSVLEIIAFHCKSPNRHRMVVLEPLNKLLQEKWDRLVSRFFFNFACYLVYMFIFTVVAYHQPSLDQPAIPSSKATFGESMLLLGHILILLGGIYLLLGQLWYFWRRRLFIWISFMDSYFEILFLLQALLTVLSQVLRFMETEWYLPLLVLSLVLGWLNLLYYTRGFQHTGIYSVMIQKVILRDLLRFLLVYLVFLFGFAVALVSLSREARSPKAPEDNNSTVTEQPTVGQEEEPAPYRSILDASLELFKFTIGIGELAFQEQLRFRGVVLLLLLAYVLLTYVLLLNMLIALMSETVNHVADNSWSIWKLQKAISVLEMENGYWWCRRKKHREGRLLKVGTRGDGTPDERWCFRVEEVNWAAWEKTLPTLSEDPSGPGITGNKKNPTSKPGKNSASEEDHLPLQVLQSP
In words: whole-cell patch clamp, inhibition of 2-APB-induced currents. The format is cell-based.

In data set [5] the target is T4, TRPV2 (Rattus norvegicus, UniProt Q9WUD2, E609Q).
T4 construct: rat TRPV2 expressed in HEK293T cells
T4 sequence (Q9WUD2 1-761 E609Q): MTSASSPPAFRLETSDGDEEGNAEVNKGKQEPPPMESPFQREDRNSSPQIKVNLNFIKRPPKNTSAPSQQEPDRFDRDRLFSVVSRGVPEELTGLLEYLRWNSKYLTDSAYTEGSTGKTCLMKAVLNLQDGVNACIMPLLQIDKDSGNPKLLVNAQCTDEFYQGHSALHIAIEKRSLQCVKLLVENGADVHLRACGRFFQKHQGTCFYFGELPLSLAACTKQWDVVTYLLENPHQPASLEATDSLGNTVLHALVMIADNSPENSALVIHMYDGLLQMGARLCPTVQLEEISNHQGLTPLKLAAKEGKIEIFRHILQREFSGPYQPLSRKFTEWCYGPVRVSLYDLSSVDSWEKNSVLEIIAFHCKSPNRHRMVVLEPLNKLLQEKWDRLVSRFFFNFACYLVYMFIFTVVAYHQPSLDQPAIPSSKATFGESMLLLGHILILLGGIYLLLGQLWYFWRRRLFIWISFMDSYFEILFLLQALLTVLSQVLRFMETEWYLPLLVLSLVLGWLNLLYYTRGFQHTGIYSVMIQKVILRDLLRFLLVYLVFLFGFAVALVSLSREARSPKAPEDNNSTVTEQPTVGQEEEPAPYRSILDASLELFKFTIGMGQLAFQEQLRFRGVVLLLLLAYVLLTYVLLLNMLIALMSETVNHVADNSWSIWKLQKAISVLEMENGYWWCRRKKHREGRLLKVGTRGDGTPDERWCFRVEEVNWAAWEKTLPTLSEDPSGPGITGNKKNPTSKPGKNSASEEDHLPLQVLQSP
Described as above. The format is cell-based.

Data set [6] deals with T5, TRPV5 (Oryctolagus cuniculus, UniProt Q9XSM3).
T5 construct: wild-type rabbit TRPV5, C-terminal 1D4 tag, in nanodiscs
T5 sequence (Q9XSM3 1-730): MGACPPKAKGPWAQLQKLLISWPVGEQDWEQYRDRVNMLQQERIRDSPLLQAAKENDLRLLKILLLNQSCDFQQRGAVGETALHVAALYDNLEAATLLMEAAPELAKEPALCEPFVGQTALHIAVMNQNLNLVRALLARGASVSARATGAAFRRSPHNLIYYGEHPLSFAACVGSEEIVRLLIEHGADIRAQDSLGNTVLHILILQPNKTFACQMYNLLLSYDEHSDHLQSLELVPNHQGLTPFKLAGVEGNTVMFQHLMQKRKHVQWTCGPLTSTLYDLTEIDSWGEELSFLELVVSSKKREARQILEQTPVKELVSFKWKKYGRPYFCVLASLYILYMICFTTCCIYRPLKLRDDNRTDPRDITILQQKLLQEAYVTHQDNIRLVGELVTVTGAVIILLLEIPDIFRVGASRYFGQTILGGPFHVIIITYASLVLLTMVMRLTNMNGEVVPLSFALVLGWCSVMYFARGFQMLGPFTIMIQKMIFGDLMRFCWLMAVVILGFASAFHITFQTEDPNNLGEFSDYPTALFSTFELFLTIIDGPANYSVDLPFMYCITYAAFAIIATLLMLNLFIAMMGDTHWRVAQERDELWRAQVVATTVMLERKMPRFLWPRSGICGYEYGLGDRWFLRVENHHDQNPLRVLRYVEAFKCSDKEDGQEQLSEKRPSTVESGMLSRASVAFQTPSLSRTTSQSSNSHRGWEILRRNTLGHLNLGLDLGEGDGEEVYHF
In words: cryo-EM structures (8FFQ with PI([…])P2 added, […] Å; 8FFN without, […] Å); IC50 from whole-cell patch clamp in HEK293 cells. The format is cell-based.

Data set [7] deals with the molecule itself. Briefly: cryo-EM structure; channel tetramer in MSP2N2/soy polar lipid nanodiscs, 20 mM Hepes pH 8.0, 150 mM NaCl, 2 mM TCEP; with 1 mM ruthenium red, with or without activator (1 mM 2-APB for TRPV2; 400 uM diC8-PI(4,5)P2 for TRPV5).

Regarding `NCCOB(c1ccccc1)c1ccccc1` [2-APB, 2-aminoethoxydiphenyl borate], on TRPV2 [1], the cryo-EM structural observation result was “clear three-lobed density for 2-APB coordinated by His521 and Arg539”.

As usually defined, the IC50 is the point on the concentration scale where inhibition reaches its midpoint. Take `N.N.N.N.N.N.N.N.N.N.N.N.N.N.[Cl-].[Cl-].[Cl-].[Cl-].[Cl-].[Cl-].[O-2].[O-2].[Ru+3].[Ru+3].[Ru+4]` [RR, ruthenium red]: the “% inhibition at 10 μM” value on TRPV5 [2] was 94.5 ± 1.5. Besides, the IC50 against TRPV2 [3] was 0.159 ± 0.047 µM; against TRPV2 [4] it was 29 ± 5 µM; at TRPV2 [5], 149 ± 111 µM; against TRPV5 [6], 0.0137 ± 0.0044 µM.

B1: wild-type rabbit TRPV5 (natural protein)
chain: MGACPPKAKGPWAQLQKLLISWPVGEQDWEQYRDRVNMLQQERIRDSPLLQAAKENDLRLLKILLLNQSCDFQQRGAVGETALHVAALYDNLEAATLLMEAAPELAKEPALCEPFVGQTALHIAVMNQNLNLVRALLARGASVSARATGAAFRRSPHNLIYYGEHPLSFAACVGSEEIVRLLIEHGADIRAQDSLGNTVLHILILQPNKTFACQMYNLLLSYDEHSDHLQSLELVPNHQGLTPFKLAGVEGNTVMFQHLMQKRKHVQWTCGPLTSTLYDLTEIDSWGEELSFLELVVSSKKREARQILEQTPVKELVSFKWKKYGRPYFCVLASLYILYMICFTTCCIYRPLKLRDDNRTDPRDITILQQKLLQEAYVTHQDNIRLVGELVTVTGAVIILLLEIPDIFRVGASRYFGQTILGGPFHVIIITYASLVLLTMVMRLTNMNGEVVPLSFALVLGWCSVMYFARGFQMLGPFTIMIQKMIFGDLMRFCWLMAVVILGFASAFHITFQTEDPNNLGEFSDYPTALFSTFELFLTIIDGPANYSVDLPFMYCITYAAFAIIATLLMLNLFIAMMGDTHWRVAQERDELWRAQVVATTVMLERKMPRFLWPRSGICGYEYGLGDRWFLRVENHHDQNPLRVLRYVEAFKCSDKEDGQEQLSEKRPSTVESGMLSRASVAFQTPSLSRTTSQSSNSHRGWEILRRNTLGHLNLGLDLGEGDGEEVYHF
notes: Transient receptor potential vanilloid 5 (TRPV5), rabbit, wild type; Homotetramer ('TRPV tetramer', C4 symmetry); No step that removes the 1D4 tag is described; also called rbTRPV5; TRPV5RR; source: S. cerevisiae BJ5457, purified (1D4 antibody beads, eluted with 1D4 peptide; reconstituted into MSP2N2 nanodiscs; SEC)
For B1, the binding result in data set [7] was “binds”.
